Measured values reported in patent publication US20040120922A1, “Method for promoting bone formation” (Genzyme Corporation, priority 2002, published 2004).

How the values were obtained:
Type in all cases: in vivo, human
hemodialysis patients [1] = test: Biochemical marker studies, 52 week randomized study in hemodialysis patients; details: end of the chronic phase of the study
Source text: Protocols 1-7 for use of RenaGel® (Geltex Pharmaceuticals, Inc., Waltham, Mass.) in each of the haemodialysis patient studies are provided in the following references, respectively, the teachings of which are incorporated herein by reference in their entireties.
Chertow, G. M., Burke, S. K., Raggi, P., for the Treat to Goal Working Group, “Sevelamer attenuates the progression of coronary and aortic calcification in hemodialysis patients,” Kidney Int. 62: 245-252 (2002).
Osteocalcin and BSAP are measures of osteoblast function and are indicative of bone formation. […] There were no statistically significant differences between treatment groups in the mean change from Day 0 to Week 52 in c-telopeptides, a collagen fragment which indicates osteoclast function and bone resorption.
The study was a 52 week, randomized, open label, multi-center, parallel study designed to assess the effects of sevelamer compared to calcium acetate/carbonate in enabling hemodialysis patients to reach therapeutic goals of phosphorus <5 mg/dL, calcium <10.5 mg/dL and iPTH in the range of 150-300 pg/mL. Patients also underwent Electron Beam Tomography (EBT) scans at Day 0 and Weeks 26 and 52. These scans were used to assess changes in cardiovascular calcification over time. […]

hemodialysis patients [2] = test: Cardiovascular calcification by Electron Beam Tomography (Agatston score), 52 week study; details: Week 0 to 52
Protocol: The study was a 52 week, randomized, open label, multi-center, parallel study designed to assess the effects of sevelamer compared to calcium acetate/carbonate in enabling hemodialysis patients to reach therapeutic goals of phosphorus <5 mg/dL, calcium <10.5 mg/dL and iPTH in the range of 150-300 pg/mL. Patients also underwent Electron Beam Tomography (EBT) scans at Day 0 and Weeks 26 and 52. These scans were used to assess changes in cardiovascular calcification over time. A total of 202 patients who were on hemodialysis and taking one or more phosphate binders were randomized in a 1:1 design to receive either Renagel® or calcium acetate (United States)/carbonate (Europe), stratified by the presence or absence of diabetes.
Approximately 12 months into the Extension study, the analysis of the initial study was completed. […] This difference was statistically significant (p=0.0398). […] This difference was statistically significant (p=0.0104). When analyzed by percent change and weekly change, the results were consistently in favor of the sevelamer group. Complete results are described in the article referenced as Protocol 7 (Chertow, 2002).

hemodialysis patients [3] = test: Thoracic spine bone density by computerized tomography densitometry, baseline vs 24 month EBT scan (Extension study); details: two years, FIG. 1
Source text: Prior to the completion and analysis of this protocol, the study was extended for an additional two years. During this extension study, patients would remain on the phosphate binder to which they were originally randomized, sevelamer or calcium acetate/carbonate, and EBT scans would be performed at Month 24 and Month 36, to assess long-term changes in cardiovascular calcification. Forty-five patients in the US and 72 patients in the EU were eligible and consented to participate in the Extension study.
Having met the endpoints of the original study, the Extension study was prematurely discontinued. Only 77 Extension study patients opted to have a final EBT scan performed.
The study's EBT Core Lab evaluated the EBT images of patients who had both a baseline and 24 month scan to assess changes over time in trabecular and cortical bone density. Specifically, thoracic spine bone density was assessed by computerized tomography densitometry (density expressed as Hounsfield units). Trabecular bone density was measured in the core of the lowest vertebral body completely captured by the scanning procedure, while cortical bone density was measured in the axial plate of the same vertebral body. Care was taken to evaluate exactly the same vertebral level in consecutive scans in the same patient. […]

hemodialysis patients [4] = test: Bone density, baseline vs 12 month scan (Example 2)
Protocol: […] Specifically, thoracic spine bone density was assessed by computerized tomography densitometry (density expressed as Hounsfield units). Trabecular bone density was measured in the core of the lowest vertebral body completely captured by the scanning procedure, while cortical bone density was measured in the axial plate of the same vertebral body. Care was taken to evaluate exactly the same vertebral level in consecutive scans in the same patient. No significant differences in demographics, baseline bone density or vascular calcification scores were observed between the sevelamer and calcium groups, with the exception of age, (sevelamer/Renagel group 53±12 yrs, calcium group 59±13 yrs, p=0.02).

hemodialysis patients [5] = test: Biochemical markers after 12 months of treatment (Example 2); details: on average, one treatment group relative to the other
Protocol: Following the 12 months of treatment, the levels a number of biochemical markers were assayed in the patient groups. […] The group treated with sevelamer had on average higher iPTH, 1-84 PTH, alkaline phosphatase, bone specific alkaline phosphatase, osteocalcin, and HDL cholesterol. The sevelamer group had lower calcium, 25-hydroxyvitamin D, total cholesterol, LDL cholesterol, apolipoprotein B, […] and total CO2.

[6] = 12 month treatment period, absolute and percentage change

For calcium acetate/carbonate, the “mean increase in BSAP (bone-specific alkaline phosphatase)” value (hemodialysis patients [1]; p<0.0001 between groups) was 6.81 U/L, the “mean increase in osteocalcin” value (hemodialysis patients [1]; p=0.0003 between groups) was 15.80 ng/mL and the “median change in aortic calcification by Agatston score” value (hemodialysis patients [2]; p=0.0104 between groups) was 75.05. The “median change in coronary artery calcification by Agatston score” value (hemodialysis patients [2]; p=0.0398 between groups) was 36.55, the “change in cortical bone density from baseline” value (hemodialysis patients [3]) was “non-significant decrease” and the “change in trabecular bone density from baseline” value (hemodialysis patients [3]) was “significant reduction”. The “change in cortical bone density” value (hemodialysis patients [4]; [6]) was “trend to reduced”, the “change in trabecular bone density” value (hemodialysis patients [4]; [6]) was “significant reduction” and the “magnitude of trabecular bone density loss, mean” value (hemodialysis patients [4]; 52 weeks) was −5%. For the same substance, the iPTH (hemodialysis patients [5]) was “significantly lower”.
